Article PMC10882719 (Frontiers in Neuroscience, 2024)
Where two headings read alike, the source gives them in different places.

Tests used:
Assay type in all cases: cell-based
[1] = molecular target: T1, 168 GPCRs (Homo sapiens, UniProt P41231); details: P2RY2
T1 construct: host or cells: PathHunter cell lines

[2] = molecular target: T2, 168 GPCRs (Homo sapiens, UniProt P51677)
T2 construct: host or cells: PathHunter cell lines
T2 sequence (P51677 1-355): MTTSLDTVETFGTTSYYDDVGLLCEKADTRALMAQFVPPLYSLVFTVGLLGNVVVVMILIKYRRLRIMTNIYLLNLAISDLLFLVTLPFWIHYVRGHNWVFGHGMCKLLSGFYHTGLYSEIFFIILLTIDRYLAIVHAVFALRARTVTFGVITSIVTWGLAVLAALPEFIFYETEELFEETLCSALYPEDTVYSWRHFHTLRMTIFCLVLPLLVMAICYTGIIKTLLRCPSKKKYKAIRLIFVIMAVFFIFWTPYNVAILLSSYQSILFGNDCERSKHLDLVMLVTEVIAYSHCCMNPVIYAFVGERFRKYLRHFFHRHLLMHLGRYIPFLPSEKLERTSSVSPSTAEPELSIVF

[3] = molecular target: T3, 168 GPCRs (Homo sapiens, UniProt P25103); details: TACR1
T3 construct: host or cells: PathHunter cell lines

[4] = molecular target: T4, 168 GPCRs (Homo sapiens, UniProt P21918)
T4 construct: host or cells: PathHunter cell lines

[5] = molecular target: T5, 168 GPCRs (Homo sapiens, UniProt P51679)
T5 construct: host or cells: PathHunter cell lines
T5 sequence (P51679 1-360): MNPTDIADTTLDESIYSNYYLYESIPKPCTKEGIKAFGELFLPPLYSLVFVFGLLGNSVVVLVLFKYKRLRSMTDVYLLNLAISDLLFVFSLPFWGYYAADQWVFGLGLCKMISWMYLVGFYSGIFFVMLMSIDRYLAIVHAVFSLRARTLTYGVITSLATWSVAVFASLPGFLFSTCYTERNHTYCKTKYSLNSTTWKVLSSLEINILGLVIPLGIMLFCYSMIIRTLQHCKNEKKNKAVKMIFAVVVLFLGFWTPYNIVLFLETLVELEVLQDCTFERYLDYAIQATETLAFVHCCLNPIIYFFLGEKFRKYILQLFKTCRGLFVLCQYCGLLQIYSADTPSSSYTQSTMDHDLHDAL

[6] = molecular target: T6, 168 GPCRs (Homo sapiens, UniProt P51686)
T6 construct: host or cells: PathHunter cell lines
T6 sequence (P51686 1-369): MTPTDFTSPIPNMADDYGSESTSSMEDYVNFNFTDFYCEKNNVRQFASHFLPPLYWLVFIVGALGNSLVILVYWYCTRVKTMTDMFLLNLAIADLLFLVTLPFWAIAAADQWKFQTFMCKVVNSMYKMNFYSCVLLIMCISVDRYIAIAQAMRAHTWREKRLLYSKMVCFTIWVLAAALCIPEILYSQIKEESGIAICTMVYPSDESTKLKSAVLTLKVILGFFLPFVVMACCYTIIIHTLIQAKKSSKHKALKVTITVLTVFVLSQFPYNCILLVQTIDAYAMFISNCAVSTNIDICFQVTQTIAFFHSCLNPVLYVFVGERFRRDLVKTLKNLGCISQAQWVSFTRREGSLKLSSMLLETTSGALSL

[7] = molecular target: T7, 168 GPCRs (Homo sapiens, UniProt P21728)
T7 construct: host or cells: PathHunter cell lines

[8] = molecular target: T8, 168 GPCRs (Homo sapiens, UniProt P32249)
T8 construct: host or cells: PathHunter cell lines

[9] = molecular target: T9, 168 GPCRs (Homo sapiens, UniProt P51684)
T9 construct: host or cells: PathHunter cell lines
T9 sequence (P51684 1-374): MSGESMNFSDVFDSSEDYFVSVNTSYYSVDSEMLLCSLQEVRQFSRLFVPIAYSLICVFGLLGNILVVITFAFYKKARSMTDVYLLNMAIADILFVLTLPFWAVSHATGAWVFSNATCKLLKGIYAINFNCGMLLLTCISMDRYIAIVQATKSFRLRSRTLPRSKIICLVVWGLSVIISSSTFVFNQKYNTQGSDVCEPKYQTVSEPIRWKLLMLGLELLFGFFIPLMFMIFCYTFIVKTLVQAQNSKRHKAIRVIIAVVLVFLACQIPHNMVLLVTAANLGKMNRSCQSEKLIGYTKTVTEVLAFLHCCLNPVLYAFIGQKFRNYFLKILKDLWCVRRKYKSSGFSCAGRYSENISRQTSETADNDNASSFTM

T1 sequence (P41231 whole entry): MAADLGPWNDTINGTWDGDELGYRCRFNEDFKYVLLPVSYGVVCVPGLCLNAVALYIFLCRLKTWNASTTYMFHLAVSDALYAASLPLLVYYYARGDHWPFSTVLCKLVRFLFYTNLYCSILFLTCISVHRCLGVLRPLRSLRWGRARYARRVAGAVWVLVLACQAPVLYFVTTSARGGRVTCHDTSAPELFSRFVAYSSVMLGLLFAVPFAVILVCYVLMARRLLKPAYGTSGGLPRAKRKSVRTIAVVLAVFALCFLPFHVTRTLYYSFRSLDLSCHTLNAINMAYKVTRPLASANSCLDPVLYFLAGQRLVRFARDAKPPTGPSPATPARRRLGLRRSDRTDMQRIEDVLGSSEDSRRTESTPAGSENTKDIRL
T8 sequence (P32249 whole entry): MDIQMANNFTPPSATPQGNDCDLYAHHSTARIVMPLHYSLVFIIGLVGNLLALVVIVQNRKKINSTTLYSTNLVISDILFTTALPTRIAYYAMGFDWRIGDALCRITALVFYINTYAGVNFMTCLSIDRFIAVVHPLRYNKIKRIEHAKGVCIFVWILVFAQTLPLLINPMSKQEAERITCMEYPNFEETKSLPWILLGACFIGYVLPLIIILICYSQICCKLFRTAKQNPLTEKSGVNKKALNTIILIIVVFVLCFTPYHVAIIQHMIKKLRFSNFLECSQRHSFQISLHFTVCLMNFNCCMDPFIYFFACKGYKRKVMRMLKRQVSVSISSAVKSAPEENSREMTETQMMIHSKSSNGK
T4 sequence (P21918 whole entry): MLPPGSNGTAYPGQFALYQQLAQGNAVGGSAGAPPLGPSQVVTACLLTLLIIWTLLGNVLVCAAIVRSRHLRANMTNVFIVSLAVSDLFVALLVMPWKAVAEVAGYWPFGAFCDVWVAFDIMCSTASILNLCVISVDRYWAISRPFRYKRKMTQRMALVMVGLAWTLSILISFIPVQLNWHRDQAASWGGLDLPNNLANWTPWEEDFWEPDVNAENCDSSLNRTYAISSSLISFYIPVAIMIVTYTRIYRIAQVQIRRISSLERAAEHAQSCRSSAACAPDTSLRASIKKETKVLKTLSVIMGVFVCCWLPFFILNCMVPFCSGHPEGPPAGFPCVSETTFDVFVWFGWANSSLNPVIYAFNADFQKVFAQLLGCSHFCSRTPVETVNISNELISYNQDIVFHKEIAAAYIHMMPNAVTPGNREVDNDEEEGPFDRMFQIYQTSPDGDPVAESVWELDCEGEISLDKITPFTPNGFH
T3 sequence (P25103 whole entry): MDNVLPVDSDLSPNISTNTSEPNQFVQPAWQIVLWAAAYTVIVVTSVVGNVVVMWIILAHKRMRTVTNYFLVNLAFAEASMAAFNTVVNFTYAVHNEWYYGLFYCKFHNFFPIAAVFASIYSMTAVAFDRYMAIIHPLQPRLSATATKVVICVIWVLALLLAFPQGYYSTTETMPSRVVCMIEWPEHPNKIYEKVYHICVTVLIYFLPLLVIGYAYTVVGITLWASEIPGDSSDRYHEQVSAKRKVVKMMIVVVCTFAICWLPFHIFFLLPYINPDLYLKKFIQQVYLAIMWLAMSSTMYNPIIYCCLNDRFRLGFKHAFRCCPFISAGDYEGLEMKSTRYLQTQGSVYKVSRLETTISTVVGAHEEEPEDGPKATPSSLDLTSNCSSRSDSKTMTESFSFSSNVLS
T7 sequence (P21728 whole entry): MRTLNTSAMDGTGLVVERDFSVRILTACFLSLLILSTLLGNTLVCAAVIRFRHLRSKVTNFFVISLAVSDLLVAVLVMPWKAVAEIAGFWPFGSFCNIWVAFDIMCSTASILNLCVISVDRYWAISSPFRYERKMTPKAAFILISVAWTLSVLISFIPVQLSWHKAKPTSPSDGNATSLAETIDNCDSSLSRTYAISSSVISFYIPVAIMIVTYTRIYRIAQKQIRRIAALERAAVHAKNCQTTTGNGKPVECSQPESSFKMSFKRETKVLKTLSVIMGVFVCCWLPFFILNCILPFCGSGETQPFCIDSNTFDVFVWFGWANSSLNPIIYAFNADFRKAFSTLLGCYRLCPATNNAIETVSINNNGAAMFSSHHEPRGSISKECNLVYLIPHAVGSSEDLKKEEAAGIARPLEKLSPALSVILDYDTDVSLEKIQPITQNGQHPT

CNC(C)Cc1ccc2c(c1)OCO2 (stereo not drawn) [MDMA, 3,4-Methylenedioxy methamphetamine, reference compound]
% Agonist Activity ([1]; Conc 1 uM): 6.6%
% Antagonist Activity ([1]; Conc 1 uM): 11.5%
% Agonist Activity ([1]; Conc 10 uM): 7.8%
% Antagonist Activity ([1]; Conc 10 uM): 9.6%
% Agonist Activity ([2]; CCR3, 1 uM): -1.5%
% Antagonist Activity ([2]; CCR3, 1 uM): 1.5%
% Agonist Activity ([2]; CCR3, 10 uM): -1.3%
% Antagonist Activity ([2]; CCR3, 10 uM): 9.6%
% Agonist Activity ([3]; Conc 1 uM): -0.2%
% Antagonist Activity ([3]; Conc 1 uM): 4.4%
% Agonist Activity ([3]; Conc 10 uM): -0.1%
% Antagonist Activity ([3]; Conc 10 uM): -2.1%
% Agonist Activity ([4]; DRD5, 1 uM): 1.7%
% Antagonist Activity ([4]; DRD5, 1 uM): 10.8%
% Agonist Activity ([4]; DRD5, 10 uM): 1.4%
% Antagonist Activity ([4]; DRD5, 10 uM): 10.5%
% Agonist Activity ([5]; CCR4, 1 uM): 0.1%
% Antagonist Activity ([5]; CCR4, 1 uM): 7.7%
% Agonist Activity ([5]; CCR4, 10 uM): 0.1%
% Antagonist Activity ([5]; CCR4, 10 uM): 13%
% Agonist Activity ([6]; CCR9, 1 uM): 0.1%
% Antagonist Activity ([6]; CCR9, 1 uM): 5.3%
% Agonist Activity ([6]; CCR9, 10 uM): 0.2%
% Antagonist Activity ([6]; CCR9, 10 uM): 14.5%
% Agonist Activity ([7]; DRD1, 1 uM): -1%
% Antagonist Activity ([7]; DRD1, 1 uM): -0.5%
% Agonist Activity ([7]; DRD1, 10 uM): -0.8%
% Antagonist Activity ([7]; DRD1, 10 uM): 6%
% Agonist Activity ([8]; EBI2, 1 uM): 0.6%
% Antagonist Activity ([8]; EBI2, 1 uM): 4.4%
% Agonist Activity ([8]; EBI2, 10 uM): -0.4%
% Antagonist Activity ([8]; EBI2, 10 uM): 7.9%
% Agonist Activity ([9]; CCR6, 1 uM): 1.4%
% Antagonist Activity ([9]; CCR6, 1 uM): 0%
% Agonist Activity ([9]; CCR6, 10 uM): 0.7%
% Antagonist Activity ([9]; CCR6, 10 uM): 0.3%

CNC(C)C(=O)c1ccc2c(c1)OCO2 (stereo not drawn) [methylone]
% Agonist Activity ([1]; Conc 1 uM): -2.1%
% Antagonist Activity ([1]; Conc 1 uM): 5.4%
% Agonist Activity ([1]; Conc 10 uM): -2.7%
% Antagonist Activity ([1]; Conc 10 uM): 1.8%
% Agonist Activity ([2]; CCR3, 1 uM): -6.7%
% Antagonist Activity ([2]; CCR3, 1 uM): -11.8%
% Agonist Activity ([2]; CCR3, 10 uM): -7.6%
% Antagonist Activity ([2]; CCR3, 10 uM): -4%
% Agonist Activity ([3]; Conc 1 uM): -3.9%
% Antagonist Activity ([3]; Conc 1 uM): 15.2%
% Agonist Activity ([3]; Conc 10 uM): -4.4%
% Antagonist Activity ([3]; Conc 10 uM): 8.9%
% Agonist Activity ([4]; DRD5, 1 uM): -0.1%
% Antagonist Activity ([4]; DRD5, 1 uM): -5.9%
% Agonist Activity ([4]; DRD5, 10 uM): -0.2%
% Antagonist Activity ([4]; DRD5, 10 uM): -2.6%
% Agonist Activity ([5]; CCR4, 1 uM): -0.5%
% Antagonist Activity ([5]; CCR4, 1 uM): 10%
% Agonist Activity ([5]; CCR4, 10 uM): -1.4%
% Antagonist Activity ([5]; CCR4, 10 uM): 9.5%
% Agonist Activity ([6]; CCR9, 1 uM): -0.5%
% Antagonist Activity ([6]; CCR9, 1 uM): 2.9%
% Agonist Activity ([6]; CCR9, 10 uM): 0.2%
% Antagonist Activity ([6]; CCR9, 10 uM): -9.9%
% Agonist Activity ([7]; DRD1, 1 uM): -1.6%
% Antagonist Activity ([7]; DRD1, 1 uM): 6%
% Agonist Activity ([7]; DRD1, 10 uM): -1.6%
% Antagonist Activity ([7]; DRD1, 10 uM): 7.8%
% Agonist Activity ([8]; EBI2, 1 uM): 0.5%
% Antagonist Activity ([8]; EBI2, 1 uM): 0.6%
% Agonist Activity ([8]; EBI2, 10 uM): -0.1%
% Antagonist Activity ([8]; EBI2, 10 uM): -2.6%
% Agonist Activity ([9]; CCR6, 1 uM): -2.9%
% Antagonist Activity ([9]; CCR6, 1 uM): 9.3%
% Agonist Activity ([9]; CCR6, 10 uM): -3.3%
% Antagonist Activity ([9]; CCR6, 10 uM): -1.6%
